Literature values in patent US11191734B2, “Ketamine transdermal delivery system” (SHENOX PHARMACEUTICALS, LLC, priority 2015, dated 2021).

What was measured:
[1] = in vivo
[2] = not given; remark: listed apart in the source
NMDA receptor = settings: in vitro
[3] = three-compartment model, 70-kg human

CNC1(c2ccccc2Cl)CCCCC1=O (racemic) [ketamine]
absolute oral bioavailability (in humans): 10-20%
half-life (in vivo): about 2 hours
systemic (primarily hepatic) clearance (in vivo): about 19 ml/min·kg
V1 [3]: 133 L
clearance [3]: 79.8 L/h
micro constant k12 [3]: 0.174 h⁻¹
micro constant k13 [3]: 1.18 h⁻¹
micro constant k21 [3]: 0.124 h⁻¹
micro constant k31 [3]: 1.59 h⁻¹
onset of antidepressant effect after administration [1]: ≤ 2 h

CN[C@@]1(c2ccccc2Cl)CCCCC1=O [R-ketamine]
antidepressant effectiveness ([2]; animal model studies): more effective as an antidepressant than S-ketamine
psychotomimetic side effects and abuse liability ([2]; in vivo): free of psychotomimetic side effects and abuse liability

CN[C@]1(c2ccccc2Cl)CCCCC1=O [S-ketamine]
affinity on NMDA receptor binding relative to R-ketamine (NMDA receptor): ~4 fold
